Source: patent US20100055179A1, “Composition of and Method for Preparing Orally Disintegrating Tablets Containing a High Dose of Pharmaceutically Active Ingredients” (MALLINCKRODT INC., priority 2006, published 2010)

Tests used:
Format in all cases: physicochemical
[1] = Wetting test (simulated in vivo disintegration time)
Protocol: (4) Wetting Test-One Whatman filter disc (21 mm in diameter) was placed in each well of a Corning 12-well polystyrene microplate (22 mm in diameter). One and a half […] of Sensient Blue #1 dye solution (similar to in vivo conditions-tongue surface) was then added into each well. An ODT tablet was carefully placed on the surface of the wet paper disc in each well using a pair of forceps, tablet face flat on the filter paper. Finally, the total wetting time was recorded as the time required for the blue dye solution to cover the surface of the tablet as simulated in vivo disintegration time.

[2] = Hardness test (tablet crushing load, Varian VK-200)
Protocol: (1) Hardness test-The ODT tablet crushing load, which is the force (kilopond, kP) required to break a tablet into halves by compression in the diametral direction, was measured with a hardness tester (Varian Hardness Tester, VK-200).

[3] = Friability test (USP <1216>)
Protocol: (2) Friability test-The friability test method was performed by a Varian Friabilator according to the USP tablet friability method described in <1216> Tablet Friability of the General chapters describing General Test Assays.

[4] = In vitro disintegration test (USP Test No. 701)
Protocol: (3) In vitro disintegration test-The disintegration time of the tablets was determined according to U.S. Pharmacopeia, Test No. 701.

[5] = 0.3% (w/w) APAP as COMPAP with Formulation A granules, Example 4
[6] = 0.3% (w/w) regular APAP blended with Formulation A granules, 400 mg tablet, Example 2
[7] = 0.3% (w/w) regular APAP wet-granulated with Formulation A, Example 3
[8] = 1.0% (w/w) APAP as COMPAP with Formulation A granules, Example 4
[9] = 1.0% (w/w) regular APAP blended with Formulation A granules, 400 mg tablet, Example 2
[10] = 1.0% (w/w) regular APAP wet-granulated with Formulation A, Example 3
[11] = 10.0% (w/w) APAP as COMPAP with Formulation A granules, Example 4
[12] = 10.0% (w/w) regular APAP blended with Formulation A granules, 400 mg tablet, Example 2
[13] = 10.0% (w/w) regular APAP wet-granulated with Formulation A, Example 3
[14] = 15.0% (w/w) regular APAP blended with Formulation A granules, 400 mg tablet, Example 2
[15] = 20.0% (w/w) APAP as COMPAP with Formulation A granules, Example 4
[16] = 20.0% (w/w) regular APAP wet-granulated with Formulation A, Example 3
[17] = 30.0% (w/w) APAP as COMPAP with Formulation A granules, Example 4
[18] = 30.0% (w/w) regular APAP wet-granulated with Formulation A, Example 3
[19] = 40.0% (w/w) APAP as COMPAP with Formulation A granules, Example 4
[20] = 50.0% (w/w) APAP as COMPAP with Formulation A granules, Example 4

Compound: CC(=O)Nc1ccc(O)cc1 [APAP, Acetaminophen]
- Wetting time [1, 5]: 15 s
- Wetting time [1, 6]: 12 s
- Wetting time [1, 7]: 18 s
- Wetting time [1, 8]: 16 s
- Wetting time [1, 9]: 11 s
- Wetting time [1, 10]: 21 s
- Wetting time [1, 11]: 22 s
- Wetting time [1, 12]: 10 s
- Wetting time [1, 13]: 30 s
- Wetting time [1, 14]: 9 s
- Wetting time [1, 15]: 30 s
- Wetting time [1, 16]: 25 s
- Wetting time [1, 17]: 45 s
- Wetting time [1, 18]: 21 s
- Wetting time [1, 19]: 65 s
- Wetting time [1, 20]: 117 s
- Hardness [2, 5]: 7.9 kP
- Hardness [2, 6]: 8.1 kP
- Hardness [2, 7]: 8.1 kP
- Hardness [2, 8]: 7.6 kP
- Hardness [2, 9]: 9.3 kP
- Hardness [2, 10]: 8.6 kP
- Hardness [2, 11]: 8.0 kP
- Hardness [2, 12]: 6.5 kP
- Hardness [2, 13]: 8.5 kP
- Hardness [2, 14]: 6.8 kP
- Hardness [2, 15]: 9.1 kP
- Hardness [2, 16]: 7.5 kP
- Hardness [2, 17]: 7.2 kP
- Hardness [2, 18]: 7.9 kP
- Hardness [2, 19]: 5.7 kP
- Hardness [2, 20]: 4.2 kP
- Friability [3, 5]: 0.5%
- Friability [3, 6]: 0.02%
- Friability [3, 7]: 0.3%
- Friability [3, 8]: 0.3%
- Friability [3, 9]: 0.03%
- Friability [3, 10]: 0.2%
- Friability [3, 11]: 0.5%
- Friability [3, 12]: 0.46%
- Friability [3, 13]: 0.0%
- Friability [3, 14]: 0.08%
- Friability [3, 15]: 0.0%
- Friability [3, 16]: 0.2%
- Friability [3, 17]: 0.5%
- Friability [3, 18]: 0.0%
- Friability [3, 19]: 0.0%
- Friability [3, 20]: 0.3%
- USP-DIT (in vitro disintegration time, USP method) [4, 5]: 26 s
- USP-DIT (in vitro disintegration time, USP method) [4, 6]: 18 s
- USP-DIT (in vitro disintegration time, USP method) [4, 7]: 12 s
- USP-DIT (in vitro disintegration time, USP method) [4, 8]: 15 s
- USP-DIT (in vitro disintegration time, USP method) [4, 9]: 20 s
- USP-DIT (in vitro disintegration time, USP method) [4, 10]: 12 s
- USP-DIT (in vitro disintegration time, USP method) [4, 11]: 11 s
- USP-DIT (in vitro disintegration time, USP method) [4, 12]: 9 s
- USP-DIT (in vitro disintegration time, USP method) [4, 13]: 18 s
- USP-DIT (in vitro disintegration time, USP method) [4, 14]: 10 s
- USP-DIT (in vitro disintegration time, USP method) [4, 15]: 11 s
- USP-DIT (in vitro disintegration time, USP method) [4, 16]: 19 s
- USP-DIT (in vitro disintegration time, USP method) [4, 17]: 16 s
- USP-DIT (in vitro disintegration time, USP method) [4, 18]: 28 s
- USP-DIT (in vitro disintegration time, USP method) [4, 19]: 16 s
- USP-DIT (in vitro disintegration time, USP method) [4, 20]: 16 s
